Assay results: ChEMBL document CHEMBL3507680, “University of Dundee, Gates Library screen for HepG2 cell viability”

Experiment: Human HepG2 cell viability assay in 384 well format
Assay type: toxicity, cell-based
Set-up: dose 125 nL, time 70.5 hour; cytotoxicity at 70.5 h: concentration not given beside the values
Conditions: HepG2 cells, read-out: Inhibition

Structure (SMILES)	cytotoxicity at 70.5 h
O=C(NCCn1cccn1)C1CCC(=O)N(CC2CCCCC2)C1 (centres undefined)	18%
CCOC(=O)c1coc(N2CCC(C(O)CC(C)C)CC2)n1 (centres undefined)	-1.6%
COc1cccc(N2CCC(N3CCOC(C(F)(F)F)C3)CC2)c1 (centres undefined)	-18.1%
O=C(NC1CCNC1)C1(N2CCCCC2)Cc2ccccc2C1 (centres undefined)	1.09%
CN1CCC(n2nc(CC3CC3)nc2-c2ccc(F)cc2Cl)CC1	-7.5%
COC[C@@]12CC[C@@H](N3CCOCC3)C[C@H]1CCN(c1cnccn1)C2	13.9%
Cc1ccc(-c2cn(C3CCN(C(=O)[C@H]4CCCO4)CC3)nn2)cc1	-5.5%
COCCCN1CCN(c2ncnc3nc(C)cc(C)c23)CC1	-4.17%
CCNc1ncc(CN(CCN(C)C)Cc2ccc(C)s2)cn1	-7.34%
CCCN1CCC(N2CCC(Cn3cc(CC(C)O)nn3)CC2)CC1 (centres undefined)	-6.23%
CC(C)(O)CCc1ccc(C(=O)N2Cc3cnn(CCO)c3C2)cc1	-11.3%
CCCc1ncc(CN(C)C2CCCN(CCc3ccccc3)C2)cn1 (centres undefined)	-4.41%
CN(C)[C@@H]1C[C@@H](CO)N(C(=O)Nc2cccc(F)c2F)C1	19.1%
Cc1nc2c(c(NCC(O)c3ccccc3Cl)n1)CCNCC2 (centres undefined)	-11.8%
Oc1cccc2ccc(CN3CCC4(CCNCC4)C3)nc12	-4.99%
C=C(C)COc1cccc(C(=O)N(CC)Cc2nccn2C)c1	2.21%
CN(C)CCn1ccnc1C1CCCN(C(=O)CCc2cccnc2)C1 (centres undefined)	-4.26%
Cc1cccnc1NCCNC(=O)c1cnc(-c2cccs2)nc1O	-0.575%
COc1cccc(N2CCN(Cc3cc(C)cc(F)c3)CC2=O)c1	-3.94%
CC[C@H](CO)NC(=O)c1coc(COc2cccc(F)c2F)n1	9.55%
O=C1CC(NCc2cnc(C3CCCCC3)nc2)CN1c1ccccc1 (centres undefined)	13.8%
Cn1cc(CN2CCCC(CCc3ccccc3C(F)(F)F)C2)cn1 (centres undefined)	-1.24%
Cc1ncnc(NC(CC(C)(C)C)c2cccnc2)c1C (centres undefined)	-2.93%
COc1ccc(CN(C)C2CCN(C(=O)C(C)C)CC2)c2cccnc12	-10.3%
COC(=O)c1ccc2ccn(CC3CCCN(C)C3)c(=O)c2c1 (centres undefined)	25.4%
CC(C)c1cc(NCC2(CO)CCC2)ncn1	17.4%
CCOCCn1nc(C)cc1C(=O)N(C)Cc1cccc2ncccc12	20.2%

Structure (SMILES)	cytotoxicity at 70.5 h
Cc1nsc(NC(=O)NC2CCOCC2)n1	13.1%
CCN1CCN(C(=O)c2cc(-c3cccn3C)n[nH]2)[C@H]2CS(=O)(=O)C[C@H]21	-18.3%
Cc1ccc(-c2cnnc(NCC3CCOCC3)n2)o1	28.5%
Cc1nn(C)c2nc(N(Cc3nccs3)C3CC3)sc12	-15.9%
Cn1c(C(N)=O)cc2c1CN(C(=O)C1CCCN(C3CCCC3)C1)CC2 (centres undefined)	-7.9%
CN(Cc1nncn1C)C(=O)c1cc(COc2ccccc2)[nH]n1	-5.51%
CCC(=O)N1CCN(Cc2cnc(C)nc2)[C@H]2CS(=O)(=O)C[C@H]21	12.9%
CCCc1cncnc1N1CCC(NCCc2ccc(O)cc2)CC1	-6.17%
Cc1cc(C(=O)N[C@H]2CN(CCO)C[C@@H]2C2CC2)sc1C	-3.28%
CN1CCCC(CCC(=O)N2CCc3c(nc(CC4CC4)[nH]c3=O)C2)C1 (centres undefined)	-4.3%
Nc1cc(-c2ccc(C(=O)O)cc2O)c2cc[nH]c2n1	4.2%
CCC(=O)Nc1cc(Cl)ccc1C(=O)N(C)Cc1noc(CC)n1	-5.2%
Cc1cnccc1CNCc1ccc(OC23CCCN(CC2)C3)cc1 (centres undefined)	-6.06%
CN1CCCCC1CCC(=O)NCCCn1nccc1C1CC1 (centres undefined)	-11.4%
CC(C)n1cc(C(=O)NCCc2cn3ccsc3n2)cn1	13.8%
CNC(=O)[C@@H]1C[C@@H](N)CN1C1CCN(Cc2ccccn2)CC1	20.3%
CCn1cc(CN2CCN(Cc3cccc(OC)c3)C(=O)C2)cc1C#N	-1.17%
Cc1cc(CN2C[C@H]3CC[C@@H]2CN(Cc2[nH]cnc2C)C3)on1	-6.39%
Cc1noc(C)c1-c1n[nH]c2c1CN(S(=O)(=O)c1cccnc1)CC2	-6.84%
OC1CCN([C@@H]2CCN(c3nc(-c4ccccc4)no3)C[C@H]2O)CC1	-1.33%
CNc1cc(C)nc(N2C[C@H](NC(=O)C3CCOCC3)[C@@H](C3CC3)C2)n1	1.67%
Cc1cccc(CN2C[C@@H](CN3CCCN(C)CC3)[C@@H](CO)C2)n1	26.4%
Cc1ccsc1-c1cccc(-c2ccn(CC3CCNC3)n2)c1 (centres undefined)	21.5%
Cc1cccnc1CNCC1(O)CCCN(CC(C)(C)C)C1=O (centres undefined)	-4.51%
COc1ccc(OC)c(-n2cnnc2CCN)c1	-4.57%
CNC(=O)[C@@H]1C[C@H](N)CN1S(=O)(=O)c1cc(Cl)c(Cl)s1	-2.73%
COc1ccc(CN(C)C(=O)c2nnc(CN(C)C)o2)cc1	-3.32%

Structure (SMILES)	cytotoxicity at 70.5 h
Cc1nn(C)cc1CN1C[C@@H]2CC[C@H](C1)N(Cc1c(C)noc1C)C2=O	32.1%
Cc1noc(C)c1CCN1CCCC1c1nc2cc(F)ccc2[nH]1 (centres undefined)	-5.52%
Cc1ccccc1-n1cc(CN(C)C[C@@H]2CCCN3CCCC[C@H]23)cn1	-12.2%
CCn1cc(C(=O)NCc2cccnc2N(C)Cc2ccccc2)cn1	2.58%
COCCC(=O)N1CCCC(CCC(=O)NCc2cccc(OC)c2)C1 (centres undefined)	20.8%
CN(Cc1cc(-c2cccnc2)no1)C(=O)c1cccn1C	0.783%
CC(C(=O)O)N1CC2(CCC1=O)CCN(C/C=C/c1ccccc1)CC2 (centres undefined)	-7.03%
COCc1ncc(-c2nccn2CCN(C)C)cn1	-2.63%
O=S(=O)(N1CCOCC1)N1CCOC(CCCc2ccccc2)C1 (centres undefined)	-11.2%
COc1cc(C2CC(=O)Nc3c2nc2n3CCCC2)cc2c1OCO2 (centres undefined)	-12%
O=C(NCC1CCCO1)c1ccc(S(=O)(=O)NCCc2cn[nH]c2)cc1 (centres undefined)	-4.87%
Cc1nn(C)cc1C(=O)N1CCCC(c2nccn2CC2CCC2)C1 (centres undefined)	-28.4%
O=C1NCC2(CCN(C(=O)c3ccc4c(c3)CCCO4)CC2)O1	-1.35%
CC(C)Oc1cc(N2C[C@H](C3CC3)[C@@H](N)C2)nc(N)n1	-25.3%
c1cc(CN2CCC(c3ccncc3)CC2)cc(Cn2cccn2)c1	-1.99%
CC(CN1CCC2(CC1)N=C(N(C)C)NC2=O)c1ccccc1 (centres undefined)	-12.1%
Cc1ccc(C)c2c(O)cc(CN3CCC(c4nncn4C)CC3)nc12	0.0856%
O=C(c1cc(COc2ccc3c(c2)OCO3)[nH]n1)N1CCCC(O)C1 (centres undefined)	0.249%
Cc1ncsc1CCN(C)C(=O)CN1CCOc2ccccc2C1	0.856%
Cc1ccc(C(C(=O)N2CCN(C(=O)c3ccc[nH]3)CC2)N(C)C)cc1 (centres undefined)	-3.84%
Cc1nccn1C1(C(=O)O)CCN(Cc2ccc3occc3c2)CC1	-7.56%
CCc1csc(CNCC(=O)Nc2ccc(Cl)c(C)c2)n1	-6.59%
C=C(C)COc1cccc(CNC(CC)c2ccnn2C)c1 (centres undefined)	1.1%
CCC[C@H]1CN(Cc2ccc(N(C)C)nc2)C[C@@H]1NC(=O)CCOC	-10.3%
Cn1c(N2CCOCC2)nc2cc(C(=O)NCC(F)(F)F)ccc21	-9.13%
